Tested on: human non-small cell lung cancer cell line (A549 cell line)
Assay: Detection of heat shock protein (Hsp70) released from paclitaxel-treated A549 cells with the Hsp70 electrochemical immunosensor
Type: cell-based
Conditions: A549 cell line treated with 0, 75, 100 μM Paclitaxel; culture solution as control; FIG. 12
From the text: It was known that the expression of heat shock protein (Hsp70) was highly correlated with the growth of cancer cells. The present invention further uses Hsp70 electrochemical immunosensor (BSA/antiHsp70/EN-LC/Au@MnO2/MoO3) to detect heat shock protein (Hsp70) in human non-small cell lung cancer cell line (A549 cell line).
Therefore, the Hsp70 electrochemical immunosensor provided by the present invention could be used for detecting heat shock protein (Hsp70).

SMILES: CC(=O)O[C@H]1C(=O)[C@@]2(C)[C@H]([C@H](OC(=O)c3ccccc3)[C@]3(O)C[C@H](OC(=O)[C@H](O)[C@@H](NC(=O)c4ccccc4)c4ccccc4)C(C)=C1C3(C)C)[C@]1(OC(C)=O)CO[C@@H]1C[C@@H]2O [paclitaxel, Paclitaxel]
- curve (the radius) of Hsp70 electrochemical immunosensor, indicating bound heat shock protein (Hsp70) released by the cells: increased

From patent US12699067B2, “Electrochemical biosensor and the manufacturing method thereof” (China Medical University, priority 2023, dated 2026)
